From PubChem BioAssay (NCI)
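Briefly, cells in 96-well plates were exposed to five compound concentrations for 48 h, and endpoints were estimated by linear interpolation. Abbreviation: GI50, concentration required for 50% inhibition of growth. TGI denotes the concentration required for complete inhibition of growth.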

Tests used:
Test in all cases: NCI tumour cell line growth inhibition, 48 h
TK-10 renal = tested on: TK-10 renal
SF-295 CNS = tested on: SF-295 CNS
NCI-H23 lung = tested on: NCI-H23 lung
MALME-3M melanoma = tested on: MALME-3M melanoma
K-562 leukemia = tested on: K-562 leukemia
RXF 393 renal = tested on: RXF 393 renal
HCC-2998 colon = tested on: HCC-2998 colon
EKVX NSCLC = tested on: EKVX NSCLC
SW-620 colon = tested on: SW-620 colon
SNB-19 CNS = tested on: SNB-19 CNS
DU-145 prostate = tested on: DU-145 prostate
SF-539 CNS = tested on: SF-539 CNS
NCI-H226 lung = tested on: NCI-H226 lung
CAKI-1 renal = tested on: CAKI-1 renal
PC-3 prostate = tested on: PC-3 prostate
KM12 colon = tested on: KM12 colon
HCT-15 colon = tested on: HCT-15 colon
OVCAR-3 ovarian = tested on: OVCAR-3 ovarian
HOP-62 NSCLC = tested on: HOP-62 NSCLC
SK-MEL-5 melanoma = tested on: SK-MEL-5 melanoma
NCI/ADR-RES ovarian = tested on: NCI/ADR-RES ovarian
SK-MEL-28 melanoma = tested on: SK-MEL-28 melanoma
LOX IMVI melanoma = tested on: LOX IMVI melanoma
A549 NSCLC = tested on: A549 NSCLC
OVCAR-5 ovarian = tested on: OVCAR-5 ovarian
BT-549 breast = tested on: BT-549 breast
NCI-H460 lung = tested on: NCI-H460 lung
COLO 205 colon = tested on: COLO 205 colon

SMILES: CCC(=O)c1c(C(F)(F)F)n([O-])c2cc(N3CCNCC3)c(F)cc2[n+]1=O
- GI50 (TK-10 renal): 2.93 µM
- TGI (TK-10 renal): 17 µM
- GI50 (SF-295 CNS): 4.2 µM
- TGI (SF-295 CNS): 18.5 µM
- GI50 (NCI-H23 lung): 3.42 µM
- TGI (NCI-H23 lung): 16.2 µM
- GI50 (MALME-3M melanoma): 0.324 µM
- TGI (MALME-3M melanoma): 8.16 µM
- GI50 (K-562 leukemia): 1.65 µM
- TGI (K-562 leukemia): 12.8 µM
- GI50 (RXF 393 renal): 1.62 µM
- TGI (RXF 393 renal): 15.1 µM
- GI50 (HCC-2998 colon): 1.4 µM
- TGI (HCC-2998 colon): 14.3 µM
- GI50 (EKVX NSCLC): 2.82 µM
- TGI (EKVX NSCLC): 13.7 µM
- GI50 (SW-620 colon): 2.68 µM
- TGI (SW-620 colon): 17.9 µM
- GI50 (SNB-19 CNS): 7.31 µM
- TGI (SNB-19 CNS): 20.6 µM
- GI50 (DU-145 prostate): 1.61 µM
- TGI (DU-145 prostate): 4.36 µM
- GI50 (SF-539 CNS): 10.3 µM
- TGI (SF-539 CNS): 22.4 µM
- GI50 (NCI-H226 lung): 5.37 µM
- TGI (NCI-H226 lung): 25.2 µM
- GI50 (CAKI-1 renal): 3.27 µM
- TGI (CAKI-1 renal): 17.9 µM
- GI50 (PC-3 prostate): 2.33 µM
- TGI (PC-3 prostate): 15.8 µM
- GI50 (KM12 colon): 1.41 µM
- TGI (KM12 colon): 15.4 µM
- GI50 (HCT-15 colon): 1.76 µM
- TGI (HCT-15 colon): 13.5 µM
- GI50 (OVCAR-3 ovarian): 1.66 µM
- TGI (OVCAR-3 ovarian): 8.67 µM
- GI50 (HOP-62 NSCLC): 10.2 µM
- TGI (HOP-62 NSCLC): 22.6 µM
- GI50 (SK-MEL-5 melanoma): 1.26 µM
- TGI (SK-MEL-5 melanoma): 3.55 µM
- GI50 (NCI/ADR-RES ovarian): 3.95 µM
- TGI (NCI/ADR-RES ovarian): 24.3 µM
- GI50 (SK-MEL-28 melanoma): 7.93 µM
- TGI (SK-MEL-28 melanoma): 21.9 µM
- GI50 (LOX IMVI melanoma): 3.41 µM
- TGI (LOX IMVI melanoma): 19.4 µM
- GI50 (A549 NSCLC): 2.58 µM
- TGI (A549 NSCLC): 13.8 µM
- GI50 (OVCAR-5 ovarian): 7.78 µM
- TGI (OVCAR-5 ovarian): 27.3 µM
- GI50 (BT-549 breast): 2.84 µM
- TGI (BT-549 breast): 12.5 µM
- GI50 (NCI-H460 lung): 1.48 µM
- TGI (NCI-H460 lung): 11.5 µM
- GI50 (COLO 205 colon): 0.454 µM
